From patent US8952054B2, “Small molecule inhibitors of MUC1 and methods of identifying the same” (Dana-Farber Cancer Institute, Inc., priority 2010, dated 2015)

Assays:
[1] = test system: ZR-75-1 breast tumor xenografts; assay: ZR-75-1 breast tumor xenografts in nude mice; assay type: in vivo, Balb-c nu/nu mice
Protocol: FIGS. 5A-C. MUC1/CQC peptide blocks growth of ZR-75-1 breast tumor xenografts. (FIG. 5A) Four to six week-old female Balb-c nu/nu mice were implanted with 17-β-estradiol plugs. After 24 h, ZR-75-1 breast cancer cells (imbedded in matrigel) were injected subcutaneously in the flank. When tumors were ˜150 mm3, the mice were paired matched into groups and injected intraperitoneally with PBS (vehicle control; closed squares), 50 mg/kg MUC1/AQA peptide (control peptide; open squares) or 10 mg/kg MUC1/CQC peptide (closed triangles) daily for 21 d. Another group was treated with 50 mg/kg MUC1/CQC peptide daily for 6 d (open triangles). Mice were weighed twice weekly and tumor measurements were performed every 4 d. (FIGS. 5B and 5C). On day 24 (asterisk), tumors harvested from the control group and the group treated with 50 mg/kg/d×6 d were stained with H&E (FIG. 5B) and with an antibody against MUC1 (FIG. 5C).
(§1) To determine if administration of the MUC1/CQC peptide is associated with effects on body weight, five female nude (nu/nu) mice were injected intraperitoneally (IP) once each day at a dose of 50 mg/kg. […] To assess anti-tumor activity, ZR-75-1 cells (1×10^7) were implanted subcutaneously into the flanks of nude mice. After 12 d, mice bearing tumors of approximately 150 mm^3 were treated with the MUC1/CQC peptide at doses of 10 and 50 mg/kg/d. As controls, mice were treated with vehicle alone or with the MUC1/AQA peptide. Administration of the MUC1/CQC peptide at 10 mg/kg/d×21 d slowed growth as compared to that obtained with the MUC1/AQA peptide given at 50 mg/kg/d (FIG. 5A). […] Consequently, treatment was stopped and the mice were monitored for regrowth. […] To assess in part the basis for the activity, tumors harvested from control and treated mice were examined by histopathology. […] Sections of the tumors were also stained with an antibody against MUC1.

ZR-75-1 cells = assay: Cell cycle distribution, apoptosis and necrosis by flow cytometry, ZR-75-1; assay type: cell-based, human; conditions: ZR-75-1, 5 μM; for necrosis (propidium iodide): detectable at 72 h, more prominent at 96 h
Protocol: FIGS. 3A-D. MUC1/CQC peptide induces S phase arrest and necrosis. ZR-75-1 (FIGS. 2A-B) and MCF-7 (FIGS. 2C-D) cells were treated with 5 μM MUC1/CQC or MUC1/AQA for 3 and 4 d. Cells were fixed and analyzed for cell cycle distribution by flow cytometry (FIGS. 2A and 2C). The percentage of cells in G1, S and G2/M phases is included in the panels. Cells were also stained with propidium iodide and analyzed by flow cytometry for necrosis (FIGS. 2B and 2D). The percentage of necrotic cells is included in the panels.
Cells were harvested, washed with PBS, fixed with 80% ethanol, and incubated in PBS containing 40 μg/ml RNAse and 40 μg/ml propidium iodide for 30 min at 37° C. Cell cycle distribution was determined by flow cytometry. Sub-G1 DNA content was assessed by staining ethanol-fixed and citrate buffer-permeabilized cells with propidium iodide and monitoring by flow cytometry as described (Yin et al., 2007). For assessment of necrosis, cells were incubated with 1 μg/ml propidium iodide/PBS for 5 min at room temperature and then monitored by flow cytometry as described (Yin et al., 2007).

CYP2C9 = CYP2C9 (Homo sapiens, UniProt P11712); conditions: cited from earlier work
HCC1937 cells = assay: HCC1937 viability (MTS); assay type: cell-based, human; conditions: HCC1937 (low to undetectable MUC1-C), 3 d
Protocol: FIGS. 16A-D—Effects of apigenin on breast cancer cells without and with endogenous MUC1 expression. (FIG. 16A) Lysates from human MCF-7, HCC1937 and BT474 cells were immunoblotted with the indicated antibodies. (FIG. 16B) BT474 cells were treated with indicated concentrations of apigenin and baicalein for 3 d, washed and then treated for an additional 3 d. Lysates were immunoblotted with the indicated antibodies. (FIG. 16C) BT474 (triangles) and HCC1937 (squares) cells were treated with apigenin for 3 d. Viable cell numbers were determined by MTS assay. The results (mean+SD of 3 determinations) are expressed as percentage of control growth in the presence of DMSO. (FIG. 16D) BT474 cells were plated at a density of 5000 cells/6 cm dish. At 24 h after seeding, DMSO or apigenin at concentrations of 25, 50 and 75 μM was added to the medium. After 2 weeks, colonies were stained with crystal violet. The results (mean+SD of 3 determinations) are expressed as percentage of control colony formation in the presence of DMSO.

[2] = Body weight of nude mice given peptide; assay type: in vivo, nude (nu/nu) mice
Protocol: as §1

MUC1-negative 293 cells = assay: Viable cell number by trypan blue exclusion, 293 cells; assay type: cell-based, human; conditions: 5 μM
Protocol: FIGS. 4A-E. Selectivity of MUC1/CQC for MUC1 expressing breast cancer cells. (FIG. 4A) ZR-75-1 cells were stably infected with an empty lentivirus (vector) or one expressing a MUC1 siRNA. Lysates for the infected cells were immunoblotted with the indicated antibodies. (FIG. 4B) ZR-75-1/vector cells were left untreated (diamonds), and ZR-75-1/vector (squares) and ZR-75-1/MUC1 siRNA (triangles) cells were treated with 5 μM MUC1/CQC peptide for the indicated times. Viable cell number was determined by trypan blue exclusion. (FIG. 4C) 293 cells were left untreated (diamonds), and treated with 5 μM MUC1/CQC (squares) or MUC1/AQA (triangles) for the indicated times. Viable cell number was determined by trypan blue exclusion. (FIG. 4D) MCF-10A cells were left untreated (left panel), and treated with 5 μM MUC1/CQC (middle panel) or MUC1/AQA (right panel). At 3 d, cells were analyzed for cell cycle distribution. […] Viable cell number was determined by trypan blue exclusion.
Human breast cancer ZR-75-1, ZR-75-1/vector, ZR-75-1/MUC1siRNA (Ren et al., 2004) cell lines were grown in RPMI1640 medium supplemented with 10% heat-inactivated fetal bovine serum (HI-FBS), 100 U/ml penicillin, and 100 μg/ml streptomycin (Invitrogen) in a humidified incubator at 37° C. and 5% CO2. […] Viability was determined by trypan blue exclusion.

Chain of CYP2C9 (P11712 whole entry, species assumed): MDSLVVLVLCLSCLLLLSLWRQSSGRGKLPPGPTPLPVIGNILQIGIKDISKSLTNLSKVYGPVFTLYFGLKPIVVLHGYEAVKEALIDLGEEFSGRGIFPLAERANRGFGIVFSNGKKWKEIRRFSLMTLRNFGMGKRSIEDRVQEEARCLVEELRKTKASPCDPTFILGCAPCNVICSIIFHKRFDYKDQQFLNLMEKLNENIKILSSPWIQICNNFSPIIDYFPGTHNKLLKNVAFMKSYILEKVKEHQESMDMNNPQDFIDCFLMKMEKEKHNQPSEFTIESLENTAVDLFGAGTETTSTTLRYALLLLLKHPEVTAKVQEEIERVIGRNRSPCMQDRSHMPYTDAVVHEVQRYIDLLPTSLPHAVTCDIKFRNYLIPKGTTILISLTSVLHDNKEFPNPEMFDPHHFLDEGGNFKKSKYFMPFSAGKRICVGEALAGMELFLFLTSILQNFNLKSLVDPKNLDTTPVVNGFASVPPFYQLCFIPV

Row | Molecule | MUC1 expression in tumor sections (antibody staining) ([1]; versus control tumors) | necrosis (propidium iodide) (ZR-75-1 cells) | inhibition of CYP2C9 (CYP2C9) | viability (MTS) (HCC1937 cells) | tumor growth ([1]; 10 mg/kg/d × 21 d IP, versus MUC1/AQA 50 mg/kg/d) | tumor growth ([1]; 50 mg/kg/d IP, initial 7 d of treatment) | tumor regrowth after treatment stopped ([1]; 50 mg/kg/d group, next 17 d) | tumor histopathology (H&E) ([1]; 10 and 50 mg/kg, versus vehicle or MUC1/AQA) | body weight ([2]; 50 mg/kg IP once each day over 11 d) | body weight ([2]; next 28 d after stopping administration, data not shown) | sub-G1 DNA content (apoptosis) (ZR-75-1 cells) | cell cycle distribution (ZR-75-1 cells; 72 h) | cell cycle distribution (ZR-75-1 cells; 96 h) | growth / viable cell number (MUC1-negative 293 cells)
1 | MUC1/AQA: control peptide in which the CQC motif was altered to AQA (SEQ ID NO: 11) (AQARRKNYGQLDIFP) [reference compound] | marked down-regulation of MUC1 expression | not | – | – | – | – | – | – | – | – | – | – | – | –
2 | O=c1cc(-c2ccc(O)cc2)oc2cc(O)cc(O)c12 [Apigenin, 4′,5,7-trihydroxyflavone] | – | – | potent inhibitor | not | – | – | – | – | – | – | – | – | – | –
3 | CC[C@H](C)[C@H](NC(=O)[C@H](CC(=O)O)NC(=O)[C@H](CC(C)C)NC(=O)[C@H](CCC(N)=O)NC(=O)CNC(=O)[C@H](Cc1ccc(O)cc1)NC(=O)[C@H](CC(N)=O)NC(=O)[C@H](CCCCN)NC(=O)[C@H](CCCNC(=N)N)NC(=O)[C@H](CCCNC(=N)N)NC(=O)[C@H](CS)NC(=O)[C@H](CCC(N)=O)NC(=O)[C@H](CS)NC(=O)[C@@H](CCCNC(=N)N)NC(=O)[C@@H](CCCNC(=N)N)NC(=O)[C@@H](CCCNC(=N)N)NC(=O)[C@@H](CCCNC(=N)N)NC(=O)[C@@H](CCCNC(=N)N)NC(=O)[C@@H](CCCNC(=N)N)NC(=O)[C@@H](CCCNC(=N)N)NC(=O)[C@@H](CCCNC(=N)N)NC(=O)[C@H](N)CCCNC(=N)N)C(=O)N[C@@H](Cc1ccccc1)C(=O)N1CCC[C@H]1C(=O)O [MUC1/CQC] | – | induction of necrosis | – | – | slowed growth | blocked growth | no detectable growth | markedly necrotic | no apparent effect | no subsequent effect | little if any accumulation of cells with sub-G1 DNA content | substantial arrest in S phase | S phase population was decreased | no apparent effect
